Measured values taken from PubChem BioAssay (NCI).
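Assay format: 96-well plates, 48-hour exposure. The concentration for full growth arrest is given as TGI.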

Experiments:
Experiment in all cases: NCI anticancer screen, dose series, 48 h
CCRF-CEM leukemia = test system: CCRF-CEM leukemia
PC-3 prostate = test system: PC-3 prostate
NCI/ADR-RES ovarian = test system: NCI/ADR-RES ovarian
OVCAR-5 ovarian = test system: OVCAR-5 ovarian
MDA-N = test system: MDA-N
RPMI-8226 leukemia = test system: RPMI-8226 leukemia
SF-295 CNS = test system: SF-295 CNS
SK-MEL-28 melanoma = test system: SK-MEL-28 melanoma
786-0 renal = test system: 786-0 renal
SK-MEL-5 melanoma = test system: SK-MEL-5 melanoma
DU-145 prostate = test system: DU-145 prostate
HT29 colon = test system: HT29 colon
UACC-257 melanoma = test system: UACC-257 melanoma
HCT-116 colon = test system: HCT-116 colon
M14 melanoma = test system: M14 melanoma
MDA-MB-231 breast = test system: MDA-MB-231 breast
U251 CNS = test system: U251 CNS
SK-MEL-2 melanoma = test system: SK-MEL-2 melanoma
IGROV1 ovarian = test system: IGROV1 ovarian
NCI-H226 lung = test system: NCI-H226 lung
MALME-3M melanoma = test system: MALME-3M melanoma
SF-268 CNS = test system: SF-268 CNS
OVCAR-3 ovarian = test system: OVCAR-3 ovarian
UACC-62 melanoma = test system: UACC-62 melanoma
MDA-MB-435 = test system: MDA-MB-435
BT-549 breast = test system: BT-549 breast
SN12C renal = test system: SN12C renal
HL-60(TB) leukemia = test system: HL-60(TB) leukemia
COLO 205 colon = test system: COLO 205 colon
MOLT-4 leukemia = test system: MOLT-4 leukemia
SNB-19 CNS = test system: SNB-19 CNS
HOP-62 NSCLC = test system: HOP-62 NSCLC
K-562 leukemia = test system: K-562 leukemia
ACHN renal = test system: ACHN renal
OVCAR-8 ovarian = test system: OVCAR-8 ovarian
UO-31 renal = test system: UO-31 renal
SK-OV-3 ovarian = test system: SK-OV-3 ovarian
NCI-H23 lung = test system: NCI-H23 lung
HS 578T breast = test system: HS 578T breast
SR leukemia = test system: SR leukemia
HCC-2998 colon = test system: HCC-2998 colon
NCI-H460 lung = test system: NCI-H460 lung
MCF7 breast = test system: MCF7 breast
A549 NSCLC = test system: A549 NSCLC
SW-620 colon = test system: SW-620 colon
HCT-15 colon = test system: HCT-15 colon
KM12 colon = test system: KM12 colon
OVCAR-4 ovarian = test system: OVCAR-4 ovarian
A498 renal = test system: A498 renal
HOP-92 NSCLC = test system: HOP-92 NSCLC
TK-10 renal = test system: TK-10 renal
NCI-H522 lung = test system: NCI-H522 lung
T-47D breast = test system: T-47D breast
SF-539 CNS = test system: SF-539 CNS
LOX IMVI melanoma = test system: LOX IMVI melanoma
CAKI-1 renal = test system: CAKI-1 renal
RXF 393 renal = test system: RXF 393 renal
EKVX NSCLC = test system: EKVX NSCLC

Measured: TGI

N#CC1(O)CCCCCCCCCCC1
> 100 µM: all assays above
